A short description of assay [1]: Example 4: 8 week weight loss experiment in obese mice, compounds via drinking water. Type of assay: in vivo, Male C57BL6/J mice. The settings on record: obese mice on high-fat diet, 8 weeks, most compounds 0.5 and 2.5 mg/kg/day, hexestrol 0.125 to 2 mg/kg/day. How it is done:
An 8 week experiment was performed to investigate the ability of various estrogen modulating compounds to induce weight loss in obese mice. Male C57BL6/J mice were placed on a high fat diet for approximately 12 weeks prior to the study and initiated in the experiment at 18 weeks of age. Obese mice were allocated into cohorts of 6 mice per compound and housed at a density of 3 per cage. Over 8 weeks, mice were placed on a high-fat diet ad libitum and compounds were provided via drinking water. Most compounds were assigned to two treatment groups with doses of 0.5 mg/kg/day and 2.5 mg/kg/day. Hexestrol was assigned to 5 treatment groups ranging between 0.125 mg/kg/day and 2 mg/kg/day. Weight measurements of each mouse were taken once per week over 8 weeks.

A short description of assay [2]: Example 1 Phase 1: prevention of weight gain in lean mice placed on high fat diet, drug via drinking water for 8 weeks. Type of assay: in vivo, Male C57BL6/J mice. The settings on record: for lean mouse body weight accumulation over the 8 week period: drug in drinking water, vs control mice. How it is done: (§1) Male C57BL6/J mice were tested as follows. The animal room was lighted entirely with artificial fluorescent lighting on controlled 12 hr light/dark cycle (6 a.m. to 6 p.m. light). The normal temperature and relative humidity ranges in the animal rooms were maintained at 22±4° C. and 50±15%, respectively. The animal room was set for 15 air exchanges per hour. Filtered tap water acidified to a pH of 2.5 to 3.0 was provided ad libitum. High fat diet was provided ad libitum.
After a 1 week acclimation, the mice were grouped into cohorts of 6 mice each. 6 DIO (diet induced obesity) and 6 lean C57BL6/J mice were used as naïve controls. Each drug was administered via drinking water for 8 weeks. The drug containing drinking water solutions were made fresh weekly. Water intake, food intake, and body weights were recorded weekly.
This experiment was run in two phases, Phase 1 (prevention of weight gain in lean mice) and Phase 2 (weight loss in obese mice). In the phase 1 experiment, the mice were placed on high fat diet at the same time administration of the drug was initiated. In the phase 2 experiment, drug treatment was initiated on 18 week old mice, which were previously on a high fat diet for approximately 12 weeks. In addition to the measurements noted above, a single DEXA Scan analysis was ran on the mice in Phase 2. After treatment, mice underwent body tissue composition analysis by Echo MRI (NMR) to measure their fat and lean mass content.
Body weight change was calculated for each mouse by subtracting the body weight on the first day of dosing (baseline) from the body weight on the last day of dosing (final) and calculating the percent change from baseline body weight: [=100*(Final Weight−BaselineWeight)/BaselineWeight]. Average percent body weight change was then calculated for each treatment group. Error bars represent standard error of the mean (SEM).
Food intake per mouse per day was calculated based on food intake per cage. Mean food intake for each treatment group was then calculated weighted by the number of mice per cage. Similarly, water intake per mouse per day was calculated based on water intake per cage. Mean water intake for each treatment group was then calculated weighted by the number of mice per cage.
In both phase 1 and 2 studies, the drugs were administered through the water given to the mice. The concentration of each drug in the water is provided below:
Diethylstilbestrol: 2 mg/500 mL (1 mg/kg/day)
Raloxifene: 20 mg/500 mL (10 mg/kg/day)
Tamoxifen: 4 mg/500 mL (2 mg/kg/day)
Clomiphene: 10 mg/500 mL (5 mg/kg/day)
Hexestrol: 4 mg/500 mL (2 mg/kg/day)
A mouse typically drinks about 5 mL of water a day.
Phase 1 (Prevention of Weight Gain in Lean Mice)

Assay [3] in a line: Example 1 Phase 2: weight loss in obese mice, drug via drinking water for 8 weeks. The assay is classed as in vivo, Male C57BL6/J mice. How it is done:
as §1
After a 1 week acclimation, the mice were grouped into cohorts of 6 mice each. 6 DIO (diet induced obesity) and 6 lean C57BL6/J mice were used as naïve controls. Each drug was administered via drinking water for 8 weeks. […] Water intake, food intake, and body weights were recorded weekly. […]
Body weight change was calculated for each mouse by subtracting the body weight on the first day of dosing (baseline) from the body weight on the last day of dosing (final) and calculating the percent change from baseline body weight: [=100*(Final Weight−BaselineWeight)/BaselineWeight]. Average percent body weight change was then calculated for each treatment group. […]
Food intake per mouse per day was calculated based on food intake per cage. Mean food intake for each treatment group was then calculated weighted by the number of mice per cage. Similarly, water intake per mouse per day was calculated based on water intake per cage. […]

Assay [4] can be described thus: Example 3: 8 week weight loss experiment in obese mice, compound in drinking water or feed. To be noted: for body weight in comparison to controls / body weight reduction from controls: 8 weeks; for fat tissue mass (NMR body composition analysis): after 8 weeks. The assay is classed as in vivo, male C57BL6/J mice. How it is done: (§2) An 8 week long weight loss experiment was performed on obese 18 week old male C57BL6/J mice having been on a high fat diet for approximately 12 weeks. The estrogen modulating compound treatment groups (hexestrol, clomiphene, raloxifene, and tamoxifen) were either provided in drinking water or feed. Obese mice were allocated into cohorts of 6 mice per compound per treatment type and housed at a density of 1 mouse per cage. Water treatment group mice were placed on a high fat diet ad libitum with compound provided via drinking water. Each feed treatment group received a specially formulated high fat diet containing their corresponding compound ad libitum and normal drinking water. Weight measurements of each mouse were taken twice per week over 8 weeks. Food intake per mouse per day was also recorded.
(§3) At the end of 8 weeks mice underwent a body tissue composition analysis by Echo MRI (NMR), an intraperitoneal glucose tolerance test (IPGTT), and an oral glucose tolerance test (OGTT). For IPGTT, each mouse received an intraperitoneal glucose solution injection of 1 g glucose/kg body weight. Serum glucose concentration was measured pre-injection, and 30, 60, and 90 minutes post-injection. For OGTT, each mouse received an oral glucose solution dose of 1 g glucose/kg body weight. Serum glucose was measured before the oral dose, and 15, 30, 90, and 120 minutes after oral dose.

Assay [5] can be described thus: Example 3: oral glucose tolerance test (OGTT) in obese mice after 8 weeks of treatment. Type of assay: in vivo, male C57BL6/J mice. To be noted: hexestrol water treated mice, 1 mg/kg/day, 1 g glucose/kg oral. How it is done: as §2, §3
A short description of assay [6]: Example 3: intraperitoneal glucose tolerance test (IPGTT) in obese mice after 8 weeks of treatment. Type of assay: in vivo, male C57BL6/J mice. To be noted: hexestrol water treated mice, 1 mg/kg/day. How it is done:
as §2, §3

For `C[C@]12CC[C@@H]3c4ccc(O)cc4CC[C@H]3[C@@H]1CC[C@@H]2O` [17β-estradiol], in assay [1], the “body weight in comparison to the control group” value was “significant reduction”.
Same read-out and setting: under `C/C=C(/C(=C/C)c1ccc(O)cc1)c1ccc(O)cc1` [Dienestrol, dienestrol] stands “significant reduction”.
In the case of `CCN(CC)CCOc1ccc(C(=C(Cl)c2ccccc2)c2ccccc2)cc1` [clomiphene], the “lean mouse body weight accumulation over the 8 week period” value in assay [2] was “significant decrease”. Further, the “change in body weight” value in assay [3] (8 weeks, clomiphene 5 mg/kg/day in drinking water) is reported as “significant”. The “fat tissue mass (NMR body composition analysis)” value (“fat tissue mass” for short) in assay [3] (after 8 weeks, in comparison to control mice) is reported as “reduction in fat tissue mass”; in assay [4] (feed treated mice) it was “significant decrease”. The “body weight in comparison to controls” value in assay [4] (feed treatment group) and in assay [4] (water treatment group) was “significant reduction” in each case.
As for `CC/C(=C(/CC)c1ccc(O)cc1)c1ccc(O)cc1` [diethylstilbestrol], in assay [2], the “lean mouse body weight accumulation over the 8 week period” value is “significant decrease”.
As to `CC[C@H](c1ccc(O)cc1)[C@@H](CC)c1ccc(O)cc1` [hexestrol], in assay [2] (8 weeks, hexestrol 2 mg/kg/day in drinking water), the “reduction of body weight accumulation from control mice” value was 35.0±11.3%. In addition, the “lean mouse body weight accumulation over the 8 week period” value in assay [2] is on record as “significant decrease”. Moreover, in assay [5] (in comparison to controls), the “increase of serum glucose concentration upon an oral dose of glucose (OGTT)” value is on record as “increases to a lesser amount”. Further, in assay [5] (post-dose), the “time at which serum glucose returns back to baseline (OGTT)” value was not above 90 min. Moreover, in assay [6] (1 g glucose/kg intraperitoneal, up to 90 minutes post-injection), the “serum glucose concentration upon injection of the glucose solution (IPGTT)” value was “remains static”. Moreover, the “starting serum glucose concentration (IPGTT)” value in assay [6] (pre-injection, in comparison to controls) is on record as “significantly lower”. For the same molecule, in assay [1], the “body weight in comparison to the control group” value is listed as “significant reduction”. Further, the “body weight in comparison to controls” value in assay [4] (feed treatment group) and in assay [4] (water treatment group) was “significant reduction” throughout. The “body weight reduction from controls” value in assay [4] (feed treatment group) is recorded as 31.7±4.5%; in assay [4] (water treatment group) it was 30.8±9.7%. Besides, the “fat tissue mass” value in assay [4] (feed treated mice) and in assay [4] (water treated mice) was “significant decrease” each time.
As for `O=C(c1ccc(OCCN2CCCCC2)cc1)c1c(-c2ccc(O)cc2)sc2cc(O)ccc12` [raloxifene], the “lean mouse body weight accumulation over the 8 week period” value in assay [2] is “significant decrease”. The “body weight in comparison to controls” value in assay [4] (feed treatment group) and in assay [4] (water treatment group) was “significant reduction” in each case.
Take `CC/C(=C(\c1ccccc1)c1ccc(OCCN(C)C)cc1)c1ccccc1` [tamoxifen]: the “lean mouse body weight accumulation over the 8 week period” value in assay [2] is “significant decrease”. Further, the “body weight in comparison to controls” value in assay [4] (feed treatment group) and in assay [4] (water treatment group) was “significant reduction” throughout. In addition, the “fat tissue mass” value in assay [4] (feed treated mice) and in assay [4] (water treated mice) was “significant decrease” in each case.
On to `CN(C)CCOc1ccc(/C(=C(/CCCl)c2ccccc2)c2ccccc2)cc1` [toremifene], for which, in assay [1], the “body weight in comparison to the control group” value was “significant reduction”.

The values are drawn from patent US20140378424A1, “ESTROGEN RECEPTOR MODULATORS FOR REDUCING BODY WEIGHT” (RosScreening, Inc., priority 2011, published 2014).
